Data on eight compounds can be found in ChEMBL document CHEMBL1201862, “PubChem BioAssay data set” (2004).

What all share (test): NCI anticancer screen, dose series, 48 h
In experiment [1] the test system is NCI/ADR-RES.
In experiment [2] the test system is NCI-H226.
Experiment [3] relates to HCT-15.
Experiment [4] relates to IGROV-1.
The subject of experiment [5] is PC-3.
The test system of experiment [6] is SF-295.
In experiment [7] the test system is RXF 393.
The subject of experiment [8] is COLO 205.
In experiment [9] the test system is RPMI-8226.
Experiment [10] relates to NCI-H460.
Experiment [11] concerns OVCAR-4.
Experiment [12] deals with K562.
In experiment [13] the test system is KM12.
The subject of experiment [14] is Hs-578T.
The test system of experiment [15] is A549.
Experiment [16] concerns EKVX.
The subject of experiment [17] is SF-539.
In experiment [18] the test system is UACC-62.

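Tested at 5 concentrations; 48 h exposure; 96-well plates; endpoints linearly interpolated, else capped at highest concentration. At the GI50, growth is halved.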 Calls of active or inactive are those of the source. Rule as the data show it: active = GI50 up to about 1.1 µM and inactive = higher.

`CCC1(O)CN(CCOC)[C@H]2C[C@@H]1C(=O)c1[nH]c3ccccc3c12` (stereo partly specified): the GI50 in experiment [1] is > 100 µM (inactive); in experiment [2], > 100 µM (inactive); in [3], greater than 100 µM; in experiment [4], > 100 µM (inactive); in experiment [5], > 100 µM (inactive); in experiment [6], > 100 µM (inactive). Besides, the GI50 in experiment [7], in experiment [8], in [9], in experiment [10], in experiment [11] and in experiment [12] was > 100 µM (inactive) in each case. Also, the GI50 in experiment [13], in experiment [14], in experiment [15], in experiment [16] and in experiment [17] was > 100 µM (inactive) each time.

As for `CN(C)CCCN1C(=O)N(CCCN(C)C)c2c3cc(O)ccc3nc3c([N+](=O)[O-])ccc1c23`, the GI50 in [1] was 92.9 µM (inactive); in experiment [2] it was 23.2 µM (inactive); in experiment [3], 13.1 µM; in experiment [4] it was 4.57 µM (inactive); in experiment [5], 8.24 µM (inactive); in experiment [6], 34.4 µM (inactive). The GI50 is 11.9 µM (inactive) in [7]; 13.7 µM (inactive) in [8]; 32.6 µM (inactive) in experiment [9]; 15.6 µM (inactive) in [10]; 2.29 µM (inactive) in experiment [11]; 4.99 µM (inactive) in experiment [12]. Also, the GI50 in experiment [18] was 11.9 µM (inactive); in experiment [13], 14.9 µM (inactive); in experiment [14] it was 21.5 µM (inactive); in experiment [15] it was 13.6 µM (inactive); in [17] it was 16 µM (inactive).

Consider `NNC(=S)N/N=C(\C(=O)Nc1cccc(O)c1)C1C(=O)NC(=S)NC1=O`, for which the GI50 is > 100 µM (inactive) in experiment [1]; > 100 µM (inactive) in [2]; greater than 100 µM in experiment [3]; > 100 µM (inactive) in [4]; > 100 µM (inactive) in [5]; > 100 µM (inactive) in [6]. The GI50 is > 100 µM (inactive) in [7]; > 100 µM (inactive) in experiment [9]; > 100 µM (inactive) in [10]; 36.3 µM (inactive) in [11]; > 100 µM (inactive) in experiment [12]; > 100 µM (inactive) in experiment [18]. The GI50 in experiment [13], in experiment [14], in experiment [15], in experiment [16] and in experiment [17] was > 100 µM (inactive) throughout.

On to `CSc1c(C#N)c(N)n(-c2ccc(C)cc2)c(=O)c1C#N`, for which the GI50 in [1] is > 100 µM (inactive); in experiment [2], 70 µM (inactive); in experiment [3] it was greater than 100 µM; in [4] it was > 100 µM (inactive); in experiment [5], > 100 µM (inactive); in experiment [7], > 100 µM (inactive). Moreover, the GI50 in [8], in [9], in [10], in experiment [11], in experiment [12] and in experiment [18] was > 100 µM (inactive) in each case. Further, the GI50 in experiment [13], in experiment [14], in experiment [15], in experiment [16] and in experiment [17] was > 100 µM (inactive) each time.

`CCOC(=O)C(Cl)(NC(=O)c1c(F)c(F)c(F)c(F)c1F)C(F)(F)F` (stereo unspecified): the GI50 in [1] is > 100 µM (inactive); in experiment [2], > 100 µM (inactive); in [3], greater than 100 µM; in experiment [4], > 100 µM (inactive); in experiment [5], > 100 µM (inactive); in [6] it was > 100 µM (inactive). In addition, the GI50 in [7], in [8], in experiment [9], in experiment [11], in experiment [12] and in experiment [18] was > 100 µM (inactive) in each case. Besides, the GI50 in experiment [13] is > 100 µM (inactive); in experiment [14], > 100 µM (inactive); in experiment [15], > 100 µM (inactive); in [16], 75.9 µM (inactive); in [17] it was > 100 µM (inactive).

For the compound `CC(ON1[C@](C)(c2ccccc2)CC[C@@]1(C)c1ccccc1)c1ccccc1` (stereo partly specified), the GI50 was 48.2 µM (inactive) in experiment [1]; 40.9 µM (inactive) in experiment [2]; greater than 100 µM in experiment [3]; 52 µM (inactive) in experiment [4]; 39.2 µM (inactive) in [5]; 26.3 µM (inactive) in [6]. For the same compound, the GI50 was 20.4 µM (inactive) in experiment [7]; 43.4 µM (inactive) in experiment [8]; 22.4 µM (inactive) in experiment [9]; 36.2 µM (inactive) in experiment [10]; 68.4 µM (inactive) in [11]; 33 µM (inactive) in experiment [12]. Besides, the GI50 in experiment [13] is 29.4 µM (inactive); in experiment [14] it was 37.3 µM (inactive); in experiment [15], 30.9 µM (inactive); in [16] it was 23.8 µM (inactive); in [17], > 100 µM (inactive).

Take `CN(C)Cc1cc(C(=O)/C=C/c2ccc(F)cc2)cc(CN(C)C)c1O`: the GI50 in [1] was 24.7 µM (inactive); in [2], 38.6 µM (inactive); in experiment [3], 7.78 µM; in experiment [4], 22.4 µM (inactive); in experiment [5], 27.5 µM (inactive); in experiment [6] it was 14 µM (inactive). The GI50 is 12.9 µM (inactive) in experiment [7]; 22.5 µM (inactive) in experiment [9]; 10.5 µM (inactive) in [10]; 41.8 µM (inactive) in experiment [11]; 17.8 µM (inactive) in [12]; 3.14 µM (inactive) in experiment [18]. Moreover, the GI50 in [13] was 18.9 µM (inactive); in experiment [14] it was 24.7 µM (inactive); in experiment [15], 26.6 µM (inactive); in [16], 35.6 µM (inactive); in experiment [17], 21.1 µM (inactive).

Take `Cn1ncc2c(Nc3cccc(Cl)c3)nc(Nc3cccc(Cl)c3)nc21`: the GI50 is 9.71 µM (inactive) in [1]; > 48.3 µM (inactive) in [2]; 4.43 µM in [3]; 12.2 µM (inactive) in [4]; 8.24 µM (inactive) in experiment [5]; 5.47 µM (inactive) in [6]. Also, the GI50 was 3.48 µM (inactive) in experiment [7]; > 24.7 µM (inactive) in [8]; 3.61 µM (inactive) in experiment [9]; 11.9 µM (inactive) in experiment [11]; 1.75 µM (inactive) in experiment [12]; 13.7 µM (inactive) in [18]. For the same compound, the GI50 was 4.9 µM (inactive) in [13]; 12 µM (inactive) in [14]; 8.11 µM (inactive) in experiment [15]; 14.5 µM (inactive) in experiment [16]; 19.9 µM (inactive) in experiment [17].
